Experimental data as given in the NIST ThermoML archive (doi:10.1016/j.jct.2010.02.009).

Assays:
[1] = refractive index (other wavelength) (dimensionless); settings: 101 kPa, Liquid, Wavelength=632.8 nm, Standard Abbe refractometry
[2] = refractive index (other wavelength) (dimensionless); xn = mol fraction of the nth substance listed; settings: 101 kPa, Liquid, Wavelength=632.8 nm, Standard Abbe refractometry, x2 = 0

CCCCCCCCC [nonane]
[1]
Settings	refractive index
278.08 K	1.4111
279.19 K	1.4106
280.4 K	1.4101
281.48 K	1.4095
282.59 K	1.409
283.65 K	1.4085
284.91 K	1.4079

CCCCCCCCC [nonane] + N#Cc1ccccc1
[2]
Settings	refractive index
278.08 K	1.4111
279.19 K	1.4106
280.4 K	1.4101
281.48 K	1.4095
282.59 K	1.409
283.65 K	1.4085
284.91 K	1.4079

N#Cc1ccccc1 [benzonitrile]
[1]
Settings	refractive index
278.24 K	1.5324
279.25 K	1.5319
281.33 K	1.5308
282.96 K	1.5301
284.3 K	1.5294
285.43 K	1.5288
